From US5635510A, “Substituted pyrrolidin-3-yl-alkyl-piperidines” (Merrell Pharmaceuticals Inc., priority 1994, dated 1997)

Assays:
NK-3 receptor = target: T1, NK-3 receptor (Cavia porcellus, UniProt P30098); assay: Antagonism of iodinated eledoisin binding to NK3 receptor, guinea pig cerebral cortex
T1 construct: evaluated in freshly collected guinea pig cerebral cortex; from tissue; host or cells: guinea pig cerebral cortex
T1 sequence (P30098 1-440): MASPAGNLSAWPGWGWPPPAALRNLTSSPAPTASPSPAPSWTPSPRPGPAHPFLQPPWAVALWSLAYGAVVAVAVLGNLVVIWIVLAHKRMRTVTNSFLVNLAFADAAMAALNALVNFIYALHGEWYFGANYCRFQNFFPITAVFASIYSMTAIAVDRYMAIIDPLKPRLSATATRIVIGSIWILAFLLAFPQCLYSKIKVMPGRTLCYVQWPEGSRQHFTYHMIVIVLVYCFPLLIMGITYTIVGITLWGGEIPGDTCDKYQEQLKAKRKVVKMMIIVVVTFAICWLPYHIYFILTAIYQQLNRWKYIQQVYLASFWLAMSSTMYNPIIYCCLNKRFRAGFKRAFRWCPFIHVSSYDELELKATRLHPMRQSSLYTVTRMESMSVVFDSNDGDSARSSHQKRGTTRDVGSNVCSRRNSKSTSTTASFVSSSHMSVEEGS
Method: (§1) ANTAGONISM OF IODINATED TACHYKININ BINDING TO NK1 AND NK2
(§2) RECEPTORS BY PUTATIVE ANTAGONISTS
The NK1 receptor affinity of proposed tachykinin antagonists was evaluated in guinea pig lungs (Keystone Biologicals, Cleveland, OH), affinity for the NK2 receptor evaluated in HSKR-1 cells (which are mouse 3T3 fibroblasts expressing the human jejunal NK2 receptor) and NK-3 receptor affinity was evaluated in freshly collected guinea pig cerebral cortex. Tissues or cells were homogenized with a Polytron in 15 volumes of 50 mM Tris-HCl buffer (pH 7.4, 4° C.) and centrifuged. The pellet was resuspended in Tris-HCl buffer and was centrifuged; the pellet was washed twice by resuspension. The final pellet was resuspended at a concentration of 40 mg/ml for tissues (guinea pig lung and cerebral cortex) and 20 mg/ml for cells in incubation buffer and remained at room temperature for at least 15 min prior to use. Receptor binding was initiated by addition of 250 ul membrane preparation in duplicate to 0.1 nM of the following radioligands: ^125 I-Bolton Hunter Lys-3 labeled substance P; ^125 iodohistidyl-1-neurokinin A; and ^125 I-Bolton Hunter labeled Lys-4 eledoisin in a final volume of 500 ul of buffer containing 50 mM Tris-HCl (pH 7.4 at room temperature), 0.1% bovine serum albumin, 2 mM MnCl2, 40 ug/ml bacitracin, 4 μg/ml leupeptin and chymostatin, 1 μM thiorphan and various doses of the putative tachykinin antagonists. Incubations were performed at room temperature for 90 min (NK1 receptor assays) or 2 hr (NK2 and NK3 receptor assays); binding was terminated by addition of 50 mM Tris-HCl buffer (pH 7.4, 4° C.) and filtration under vacuum through GF/B filters presoaked with 0.1% polyethyleneimine (NK1 receptor assays) or 0.5% bovine serum albumin (NK2 and NK3 receptor assays). Filter bound radioactivity was quantitated in a gamma counter. […] Specific binding was calculated by subtracting nonspecific binding from total binding. Competition of iodinated SP, NKA, or eledoisin binding by test compounds or standards was expressed as a percentage of this maximum competition. […]

NK1 receptor = target: T2, NK1 receptor (Cavia porcellus, UniProt P30547); assay: Antagonism of iodinated substance P binding to NK1 receptor, guinea pig lung; conditions: for IC50: NK-1 IC50, guinea pig lung, 125I-substance P, mean of several experiments
T2 construct: evaluated in guinea pig lungs; tissue Keystone Biologicals, Cleveland, OH; host or cells: guinea pig lung
Method: as §1, §2
(§3) The NK1 receptor affinity of proposed tachykinin antagonists was evaluated in guinea pig lungs (Keystone Biologicals, Cleveland, OH), affinity for the NK2 receptor evaluated in HSKR-1 cells (which are mouse 3T3 fibroblasts expressing the human jejunal NK2 receptor) and NK-3 receptor affinity was evaluated in freshly collected guinea pig cerebral cortex. Tissues or cells were homogenized with a Polytron in 15 volumes of 50 mM Tris-HCl buffer (pH 7.4, 4° C.) and centrifuged. The pellet was resuspended in Tris-HCl buffer and was centrifuged; the pellet was washed twice by resuspension. The final pellet was resuspended at a concentration of 40 mg/ml for tissues (guinea pig lung and cerebral cortex) and 20 mg/ml for cells in incubation buffer and remained at room temperature for at least 15 min prior to use. Receptor binding was initiated by addition of 250 ul membrane preparation in duplicate to 0.1 nM of the following radioligands: ^125 I-Bolton Hunter Lys-3 labeled substance P; ^125 iodohistidyl-1-neurokinin A; and ^125 I-Bolton Hunter labeled Lys-4 eledoisin in a final volume of 500 ul of buffer containing 50 mM Tris-HCl (pH 7.4 at room temperature), 0.1% bovine serum albumin, 2 mM MnCl2, 40 ug/ml bacitracin, 4 μg/ml leupeptin and chymostatin, 1 μM thiorphan and various doses of the putative tachykinin antagonists. Incubations were performed at room temperature for 90 min (NK1 receptor assays) or 2 hr (NK2 and NK3 receptor assays); binding was terminated by addition of 50 mM Tris-HCl buffer (pH 7.4, 4° C.) and filtration under vacuum through GF/B filters presoaked with 0.1% polyethyleneimine (NK1 receptor assays) or 0.5% bovine serum albumin (NK2 and NK3 receptor assays). Filter bound radioactivity was quantitated in a gamma counter. Nonspecific binding was defined as binding in the presence of 1 μM substance P, neurokinin A, or eledoisin. Specific binding was calculated by subtracting nonspecific binding from total binding. Competition of iodinated SP, NKA, or eledoisin binding by test compounds or standards was expressed as a percentage of this maximum competition. IC50 values (concentration required to inhibit 50% of receptor binding) were generated for each of the test compounds by nonlinear regression using an iterative curve fitting program (GraphPAD Inplot, San Diego, Calif.).

[1] = target: T3, human jejunal NK2 receptor (Homo sapiens, UniProt P21452); assay: Antagonism of iodinated neurokinin A binding to NK2 receptor, HSKR-1 cells (mouse 3T3 fibroblasts expressing the human jejunal NK2 receptor); conditions: for IC50: NK-2 IC50, HSKR-1 cells, 125I-neurokinin A, mean of several experiments
T3 construct: expressed in transfected cells; host or cells: HSKR-1 cells (mouse 3T3 fibroblasts)
T3 sequence (P21452 1-398): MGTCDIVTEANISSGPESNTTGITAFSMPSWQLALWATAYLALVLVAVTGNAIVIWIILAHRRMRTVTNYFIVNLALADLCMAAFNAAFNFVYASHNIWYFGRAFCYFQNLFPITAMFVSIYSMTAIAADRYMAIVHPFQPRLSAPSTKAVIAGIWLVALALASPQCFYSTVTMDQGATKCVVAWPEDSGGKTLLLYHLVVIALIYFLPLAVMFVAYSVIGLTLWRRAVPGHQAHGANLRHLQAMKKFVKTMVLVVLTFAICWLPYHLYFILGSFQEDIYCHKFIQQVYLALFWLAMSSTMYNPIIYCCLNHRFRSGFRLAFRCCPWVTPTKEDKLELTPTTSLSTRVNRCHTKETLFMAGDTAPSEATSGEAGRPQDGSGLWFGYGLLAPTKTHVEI
Method: as §1, §2, §3

NK2 receptor = assay: Antagonism of NKA-induced respiratory effects in conscious guinea pigs; assay type: in vivo, guinea pig; conditions: for dyspnea incidence / dyspnea onset: i.v. 20 min prior to NKA aerosol (0.05%); for dyspnea onset: mean and SEM; for effect on NKA-induced respiratory effects (in words): NKA aerosol, dose dependent
Method: In vivo experiments were performed using male Duncan Hartley guinea pigs (250-350g). Changes in conscious breathing patterns were monitored in four animals simultaneously using modified whole body plethysmography consisting of four small plexiglass boxes each connected to a reference box via Validyne DP 45-16 differential pressure transducers. The 4 boxes were equipped with an air supply line (also used for aerosol delivery) and an exhaust air line. Supply and exhaust lines were of the same length and narrow bore and arose from a common supply chamber and vented to a common exhaust chamber. This system was used to ensure that fluctuations in supply air and atmospheric pressure would remain in phase and be eliminated from the net signal by the differential pressure transducers. The analog pressure signals were digitalized via a Data Translation DT2821 A to D board. Data were collected at a rate of 100 samples/second/animal. Each cycle of pressure change was analyzed using the following parameters: rising and falling slope determined between minimum and maximum pressures, the ratio of rising over falling slope, and the magnitude of the change between initial trough pressure and peak cycle pressure. Using these values (and observing the animals) the pressure cycles were characterized into normal breaths, forced exhalations (apparent by abdominal heaving), significant respiratory events (SREs; usually coughs, less often sneezes or gasps which were characterized by transient, extremely large pressure increases which were distinguishable from noise) and movement/noise with a PCAT 286 running a System V UNIX operating system. Dyspnea was defined as a significant, sustained increase in plethysmograph pressure which was associated with an observable shift to labored breathing in the animal.
During the course of a typical experiment in which airway responsiveness to various bronchoconstricting agents was examined, aerosols were delivered for 19 min (0.33 ml/min) using a DeVilbiss Ultraneb 99 ultrasonic nebulizer and animals monitored during this time. Prior to nebulization, 1 min of resting breathing was collected to establish a baseline pressure. […] The vehicle for nebulization of all bronchoconstrictive agents was phosphate buffered saline (pH 7.4) which elicited no respiratory effects itself. Putative tachykinin antagonists were administered either (i.v.) 20 min prior to onset of aerosol exposure or orally 1 hour prior to onset (to guinea pigs after an overnight fast).

T2 sequence (P30547 whole entry): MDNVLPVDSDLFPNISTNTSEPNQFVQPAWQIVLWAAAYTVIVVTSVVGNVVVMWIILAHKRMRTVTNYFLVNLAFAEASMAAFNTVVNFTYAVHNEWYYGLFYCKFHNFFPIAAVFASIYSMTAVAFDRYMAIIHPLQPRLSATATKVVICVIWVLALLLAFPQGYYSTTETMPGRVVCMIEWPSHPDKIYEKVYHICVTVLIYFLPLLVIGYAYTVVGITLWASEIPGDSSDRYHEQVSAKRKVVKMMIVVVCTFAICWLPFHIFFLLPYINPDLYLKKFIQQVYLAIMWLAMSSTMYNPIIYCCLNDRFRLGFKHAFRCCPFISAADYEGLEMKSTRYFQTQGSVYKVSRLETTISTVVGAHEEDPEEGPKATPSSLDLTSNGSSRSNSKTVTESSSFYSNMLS

`COc1cc(C(=O)N2CCC(CCN3CCC(C(N)=O)(c4ccccc4)CC3)(c3ccc(Cl)c(Cl)c3)C2)cc(OC)c1OC` (single isomer, unassigned; (+)) [Example 20, (+)-1-[2-[3-(3,4-dichloro-phenyl)-1-(3,4,5-trimethoxy-benzoyl)-pyrrolidin-3-yl]-ethyl]-4-phenylpiperidine-4-carboxylic acid amide] showed an IC50 (NK-3 receptor; NK-3 IC50, guinea pig cerebral cortex, 125I-eledoisin, mean of several experiments) of 21 nM, an IC50 (NK1 receptor) of 4.65 nM and an IC50 [1] of 8.4 nM.
For `COc1cc(C(=O)N2CCC(CCN3CCC(C(N)=O)(c4ccccc4)CC3)(c3ccc(Cl)c(Cl)c3)C2)cc(OC)c1OC.Cl` (single isomer, unassigned; (+)) [Example 20A, (+)-1-[2-[3-(3,4-dichloro-phenyl)-1-(3,4,5-trimethoxy-benzoyl)-pyrrolidin-3-yl]-ethyl]-4-phenyl-piperidine-4-carboxylic acid amide hydrochloride], the IC50 (NK1 receptor) was 2.99 nM, the dyspnea incidence (NK2 receptor; 1 mg/kg) was 100% and the dyspnea onset (NK2 receptor; 1 mg/kg) was 451 ± 30 s. The dyspnea incidence (NK2 receptor; 5 mg/kg) was 90%, the dyspnea onset (NK2 receptor; 5 mg/kg) was 706 ± 82 s and the dyspnea incidence (NK2 receptor; 10 mg/kg) was 70%. The dyspnea onset (NK2 receptor; 10 mg/kg) was 829 ± 105 s, the “effect on NKA-induced respiratory effects (in words)” value (NK2 receptor) was “reduced the effects of NKA aerosol” and the IC50 [1] was 7.93 nM.
In the case of `COc1cc(C(=O)N2CCC(CCN3CCC(C(N)=O)(c4ccccc4)CC3)(c3ccc(Cl)c(Cl)c3)C2)cc(OC)c1OC` (stereo not drawn) [Example 3, 1-[2-[3-(3,4-dichloro-phenyl)-1-(3,4,5-trimethoxy-benzoyl)-pyrrolidin-3-yl]-ethyl]-4-phenyl-piperidine-4-carboxylic acid amide], the “affinity for NK3 receptors (in words)” value (NK-3 receptor; guinea pig cerebral cortex) is reported as “high affinity”, the “affinity for NK1 receptors (in words)” value (NK1 receptor; guinea pig lung) is reported as “high affinity” and the dyspnea incidence (NK2 receptor; 5 mg/kg) is reported as 86%. The dyspnea incidence (NK2 receptor; 10 mg/kg) was 60%, the “effect on NKA-induced respiratory effects (in words)” value (NK2 receptor) was “reduced the effects of NKA aerosol” and the “affinity for NK2 receptors (in words)” value ([1]; HSKR-1 cells) was “high affinity”.
